# “And” between values parts separate entries of the source, which are not always exact repeats. Equal values may be shown once.
# Columns and labels:
# [1] = Caffeine plasma level after sublingual caffeine+capsaicin in ethanol; format: in vivo, human; details: 5 cases; sublingual caffeine 200 mg + capsaicin in ethanol
# normal, healthy adults = experiment: Phase I CPC sublingual gel: blood pressure and heart rate; format: in vivo, human; details: 15-120 minutes
# Protocol: Study Methods: The design was an open label, phase I, dose escalation, pharmacokinetic study of a novel gel formulation of capsaicin, phenylephrine, and caffeine administered sublingually to normal, healthy adults.
# Dosing and Administration: The product was expressed as fast as feasible from the oral syringe sublingually. The subject was asked to have the gel reside under the tongue for 1 minute before it was swallowed and the mouth was rinsed with water. Multiple rinses were allowed.
# Of the three active components of the sublingual dosage, the dose of phenylephrine was the focus of dose escalation.
# Study Drug Administration: The subject were asked to sit in a chair that allowed access to their mouth and subsequent blood sampling and continuous BP and HR monitoring. After 15-minute rest, vital signs were taken pre-dose, and SBP had to be ≤130 mmHg in order for dose to be given. If SBP>130 mmHg, the blood pressure was checked again in 15 minutes. If the repeat measurement had SBP≤130 mmHg, the first dose of CPC was given.
# The study nurse delivered the appropriate dose to the subject using an oral syringe sublingually. The subject allowed the gel to reside under the tongue for 1 minute before the gel was swallowed and the mouth was rinsed with water that was swallowed. Multiple rinses were allowed as was water ad lib. […]
# blood donors = details: 125 or 250 mg; 95% CI 0.21-0.85; p=0.02; cited from earlier work
# A2 adenosine receptor = details: cited from earlier work
# [2] = single dose of 200-250 mg, cited from earlier work
# [3] = test system: healthy subjects and 1 patient with a history of VVS; experiment: Study 2: Capsaicin alone, tilt table testing; format: in vivo, human
# Protocol: In a second study, we tested the effect of Capsaicin alone (50 μL Capsaicin 0.5%) on HR and BP in 3 healthy subjects (1 woman and 2 men mean age 35±18 years) and in 1 patient with a history of VVS during tilt table testing (Table 1).
# clinical = details: human, in vivo
# Protocol: Pharmacokinetic Sampling: Blood samples were collected via the venous catheter with appropriate pre- and post-sample flushing. If the indwelling venous catheter patency was lost, the phlebotomist or nurse attempted to replace it, if possible. Separate needle sticks could be done for the blood collection.
# Samples were collected in 6 mL heparinized tubes at the following time points: Pre-dose, 30 seconds, 1, 2, 5, 15, 30, 45, 60, 90, 120 min, and 3, 4, 6, 8, 12, 24* hours
# The lithium heparin tube and 1 K2EDTA tube (capsaicin sample) were immediately placed on ice or refrigerated. […] All blood samples were centrifuged as soon as possible after clotting in a refrigerated centrifuge. The plasma from each tube was equally distributed between 2 polypropylene tubes, labeled and promptly stored at −80° C. until thawed for analysis.
# VR1receptor = details: micro molar range; cited from earlier work
# [4] = test system: impending syncope (VVS) patients; details: cited from earlier work
# [5] = cited from earlier work
# impending VVS = details: cited from earlier work
# [6] = healthy subjects, individual subjects
smiles,measurement,setting,value
Cn1c(=O)c2c(ncn2C)n(C)c1=O [Caffeine],Start of increase in caffeine blood concentration,[1],30 s
same,Speculated contribution of Caffeine to SBP elevation,"normal, healthy adults",1-2 mmHg
same,RR of occurrence of VVRs versus placebo,blood donors,0.42
same,Affinity,A2 adenosine receptor,9 µM
same,Increase in SBP,[2]; within 30 minutes,3-14 mmHg
same,Time of maximal increase in SBP,[2],60 to 120 min
"COc1cc(CNC(=O)CCCC/C=C/C(C)C)ccc1O [Capsaicin, 8-methyl-N-vanillyl-trans 6-nonenamide]",Symptoms after drug,[3]; 1 patient with VVS,no
same,Time of max SBP increase,[3]; 1 patient with VVS,1 min
same,Max SBP after drug,"[3]; 1 patient with VVS, pending syncope YES, SBP at time 0 100",120 mmHg
same,HR after Drug,"[3]; 1 patient with VVS, HR at time 0 56",80 bpm
same,"SBP after Capsaicin alone, mean","[3]; 3 healthy subjects, from a mean of 120±10 mmHg",155±5 mmHg
same,"Time of max SBP increase, Mean",[3]; Mean of 3 healthy subjects,1.3 min
same,"HR after Drug, Mean","[3]; Mean of 3 healthy subjects, HR at time 0 mean 78",96 bpm
same,"Max SBP after drug, Mean","[3]; Mean of 3 healthy subjects, SBP at time 0 mean 120",155 mmHg
same,Max SBP after drug,"[3]; healthy subjects, Capsaicin alone 50 μL 0.5%, individual subjects",160 mmHg and 155 mmHg and 150 mmHg
same,Effect on SBP,"[3]; healthy subjects, conclusion",able to increase SBP
same,HR after Drug,[3]; [6],100 bpm and 104 bpm and 85 bpm
same,Symptoms after drug,[3]; [6],no
same,Time of max SBP increase,[3]; [6],1 min (2×) and 2 min
same,Effect on loss of consciousness,"[3]; one VVS patient, conclusion",prevent loss of consciousness
same,Outcome of tilt test,[3]; patient with VVS,experienced only presyncope
same,SBP after capsaicin alone,"[3]; patient with VVS, at onset of prodromes, from 100 mmHg",120 mmHg
same,Time of peak Capsaicin blood level,clinical,around 15 minutes
"CNC[C@H](O)c1cccc(O)c1 [PE, phenylephrine]",Speculated contribution of PE to SBP elevation,"normal, healthy adults",1-2 mmHg
same,PE blood concentration in the current study,clinical,1 to 2 ng/mL
same,concentration at 15 min,clinical,~1 ng/mL
same,Effect on vagally-induced bradycardia,[4]; in vivo,unable to counteract the vagally-induced bradycardia
same,Effect on blood pressure,[4]; intra-atrial bolus 1 mg/1 ml at impending syncope,immediate marked increase in blood pressure
same,Effect on VVS,[4]; intra-atrial bolus 1 mg/1 ml,interrupted VVS in most patients
same,Time to effect,[4]; mostly,≤ 20 s
same,Mean increase in SBP,"[5]; PE blood concentration of 20 nM, 3 mcg/L or 3 ng/ml",3 mmHg
same,"Increase in systolic BP, mean",[5]; PE concentration of 9 mcg/L,11 mmHg
same,"Increase in systolic BP, range",[5]; PE concentration of 9 mcg/L,6-20 mmHg
CCNCC(O)c1cccc(O)c1 (centres unmarked) [etilefrine],Cases in which impending VVS was aborted,"impending VVS; intravenous injection, 20% with placebo",87%
same,Time to effect,impending VVS; mostly,≤ 20 s
